Counter-ions that a name gives are not always drawn.
Legend:
[1] = test system: common marmosets; test: marmoset human threat test; type: in vivo, common marmoset; conditions: for No. jumps (index of locomotor activity): 1 h before test, mean±SEM n=4, vehicle 16.3 ± 1.7
Protocol: For example the marmoset human threat test (Costall et al., 1988 The study utilised in house laboratory-bred male and female common marmosets over 2 years of age, weighing 300-500 g. The animals were caged in couples, in a housing room maintained at 25±1° C., 60% humidity and a 12 hour light/dark cycle (lights on at 0600, with 30 min simulated dawn and twilight). Testing was carried out with the animals situated in the home cage. One hour before the test animals were treated orally with vehicle (0.5% HPMC) or test compound (1 ml/kg). After a wash-out period of at least three days, treatments were reassigned and the study was complete when all animals had received all treatments. Number of specific behavioural postures in response to the human threat and the number of jumps were analysed in this study. The postures recorded in the test were those described by Costall et al (1988). and the number of jumps from the back of the cage to the cage front provided an index of locomotor activity to assess potential for sedation or locomotor stimulation. […] Results are expressed as mean±SEM (n=7). of number of postures and as a mean±SEM (n=4) of number of jumps. Data were subjected to one-way analysis of variance (ANOVA) followed by Dunnett's test, comparing each compound dose with vehicle treatment, using Statistica software (version 8.0) Statistically significant differences with respect to vehicle are indicated as *P<0.01.

[2] = target: T1, NK1 receptor (Meriones unguiculatus, UniProt Q5DUB1); test: gerbil foot tapping model (GR73632-induced, icv); type: in vivo
T1 construct: from tissue; host or cells: living gerbil, central nervous system (in vivo)
T1 sequence (Q5DUB1 whole entry): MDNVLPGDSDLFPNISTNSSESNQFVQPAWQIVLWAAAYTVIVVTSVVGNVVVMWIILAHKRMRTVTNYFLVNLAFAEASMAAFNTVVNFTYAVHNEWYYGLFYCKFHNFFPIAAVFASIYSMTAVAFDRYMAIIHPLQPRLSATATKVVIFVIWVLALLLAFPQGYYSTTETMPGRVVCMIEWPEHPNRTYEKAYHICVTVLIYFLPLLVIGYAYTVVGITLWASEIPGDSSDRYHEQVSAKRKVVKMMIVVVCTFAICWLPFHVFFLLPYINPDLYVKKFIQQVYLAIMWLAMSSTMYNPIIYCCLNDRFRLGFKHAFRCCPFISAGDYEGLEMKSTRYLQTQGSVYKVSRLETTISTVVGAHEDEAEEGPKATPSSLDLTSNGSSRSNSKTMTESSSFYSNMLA
Description: The ability of the compounds of the invention to penetrate the central nervous system and to bind at the NK1 receptor may be determined using the gerbil foot tapping model as described by Rupniak & Williams, Eur. Jour. of Pharmacol., 1994.
Intracerebroventricular (icv) administration of the NK1 receptor agonist GR73632 (R. M. Hagan et al., Neuropeptides 1991, 19 (2), 127-135) a characteristic hind leg foot tapping (GFT) response in gerbils which can be inhibited by potent NK1 receptor antagonists. The gerbil foot tapping paradigm was carried out as follows; gerbils were dosed with compound of the invention, and following an appropriate pre-treatment time were anaesthetised using isofluorane/oxygen mixture. The skull was then exposed and 5 ul of GR73632 (3 pmol conc.) was injected by insertion of a cuffed 25 G needle to a depth of 4 mm below bregma, directly into the lateral ventricle (intracerebroventricular dosing). Immediately following the injection, gerbils were placed individually into a clear observation box to recover. Upon the gerbil regaining its righting reflex, the duration of repetitive hind foot tapping was recorded over a 5 minute period. […]

No. jumps (index of locomotor activity) ([1]; 0.1 mg/kg oral): 20.1 ± 2.1
No. jumps (index of locomotor activity) ([1]; 0.3 mg/kg oral): 13.4 ± 2.5
No. jumps (index of locomotor activity) ([1]; 1 mg/kg oral): 13.0 ± 2.1
GR73632-induced foot tapping behaviour ([2]; 0.3, 1.0 and 3.0 mg/kg p.o., P<0.01): significantly attenuated
ID50 as plasma concentration ([2]; plasma, p.o.): approximately 5 ng/ml
SMILES: Cc1cc(F)ccc1-c1cc([C@H]2CC[C@](C)(C(N)=O)N2)ncc1N(C)C(=O)C(C)(C)c1cc(C(F)(F)F)cc(C(F)(F)F)c1 [Example 11, (5R)-5-[5-[{2-[3,5-bis(trifluoromethyl)phenyl]-2-methylpropanoyl}(methyl)amino]-4-(4-fluoro-2-methylphenyl)-2-pyridinyl]-2-methyl-D-prolinamide bis-hydrochloride]
effect on number of jumps ([1]; 0.1, 0.3 or 1 mg/kg oral): not accompanied by a reduction in the number of jumps
effect on number of postures ([1]; 0.1, 0.3 or 1 mg/kg oral, significant at 0.3 and 1 mg/kg (P<0.01)): dose dependent reduction in the number of postures

Source: patent US9006271B2, “5-[5-[2-(3,5-bis(trifluoromethyl)phenyl)-2-methylpropanomethylpropanoylmethylamino]-4-(4-fluoro-2-methylphenyl)]-2-pyridinyl-2-alkyl-prolinamide as NK1 receptor antagonists” (Nerre Therapeutics Limited, priority 2008, dated 2015)
